{"source": "paper PMC4280904", "about": "(Journal of Veterinary Pharmacology and Therapeutics, 2014)", "key": {"CYP2C19": {"target": "CYP2C19 (Homo sapiens, UniProt P33261)", "sequence (P33261 whole entry)": "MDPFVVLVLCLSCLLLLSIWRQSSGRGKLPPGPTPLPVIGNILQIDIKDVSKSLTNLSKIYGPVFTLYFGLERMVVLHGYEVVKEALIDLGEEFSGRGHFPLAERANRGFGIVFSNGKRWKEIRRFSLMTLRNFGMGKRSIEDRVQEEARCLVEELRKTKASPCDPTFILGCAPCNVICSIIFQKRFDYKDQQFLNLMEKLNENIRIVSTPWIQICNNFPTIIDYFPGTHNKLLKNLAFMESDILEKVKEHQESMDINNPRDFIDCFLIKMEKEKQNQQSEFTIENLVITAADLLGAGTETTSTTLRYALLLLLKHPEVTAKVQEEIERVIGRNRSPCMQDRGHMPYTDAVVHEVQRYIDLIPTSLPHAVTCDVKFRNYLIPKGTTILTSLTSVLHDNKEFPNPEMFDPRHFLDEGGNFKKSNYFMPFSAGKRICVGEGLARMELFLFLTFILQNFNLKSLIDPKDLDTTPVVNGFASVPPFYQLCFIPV", "assay": "In vitro enzyme inhibition, recombinant CYP, fluorescent metabolites", "format": "in vitro ADME"}, "CYP2E1": {"tested_on": "CYP2E1", "assay": "In vivo enzyme induction: nitrophenol hydroxylase", "parameters": "species or system Wistar rats", "details": "rats, 3–100 mg/kg p.o. once daily 7 days"}, "[1]": {"assay": "Excretion balance of [14C] imepitoin after oral and intravenous dosing", "format": "in vivo, beagle dogs", "details": "for Fraction excreted, Total / Fraction excreted, Urine + Cage wash / Fraction excreted, Feces: cumulative radioactivity, mean (CV %)"}, "CYP3A4": {"target": "CYP3A4 (Homo sapiens, UniProt P08684)", "sequence (P08684 whole entry)": "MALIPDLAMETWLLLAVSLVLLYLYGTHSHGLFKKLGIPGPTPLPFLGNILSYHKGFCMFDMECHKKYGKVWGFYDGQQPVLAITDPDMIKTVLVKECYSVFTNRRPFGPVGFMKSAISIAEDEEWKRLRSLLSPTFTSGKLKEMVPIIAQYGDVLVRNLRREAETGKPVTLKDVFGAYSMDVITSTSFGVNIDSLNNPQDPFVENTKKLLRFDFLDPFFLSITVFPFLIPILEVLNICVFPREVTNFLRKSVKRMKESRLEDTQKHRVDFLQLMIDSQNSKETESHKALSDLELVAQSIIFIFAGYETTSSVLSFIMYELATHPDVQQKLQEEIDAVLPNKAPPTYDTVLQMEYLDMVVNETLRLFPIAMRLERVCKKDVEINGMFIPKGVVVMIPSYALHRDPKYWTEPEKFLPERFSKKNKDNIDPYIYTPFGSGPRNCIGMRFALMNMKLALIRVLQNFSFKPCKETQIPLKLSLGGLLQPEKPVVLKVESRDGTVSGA", "assay": "In vitro enzyme inhibition, recombinant CYP, fluorescent metabolites", "format": "in vitro ADME", "details": "up to the highest concentration tested (100 μM)"}, "plasma protein [2]": {"tested_on": "plasma protein", "assay": "In vitro plasma protein binding", "format": "in vitro ADME, beagle dogs", "details": "beagle, dog, heparinized plasma, mean ± SEM, n=3"}, "NAT2": {"tested_on": "NAT2", "assay": "In vivo enzyme induction: N-acetyltransferase, procainamide", "parameters": "species or system Wistar rats", "details": "rats, 3–100 mg/kg p.o. once daily 7 days"}, "[3]": {"tested_on": "pentylenetetrazole-induced convulsions", "details": "dogs, ref Löscher et al., 2004, cited from earlier work"}, "plasma protein [4]": {"tested_on": "plasma protein", "assay": "In vivo plasma protein binding in dogs dosed with [14C] imepitoin", "format": "in vitro ADME, beagle dogs"}, "CYP2A": {"tested_on": "CYP2A", "assay": "In vivo enzyme induction: ethoxycoumarin O-deethylase", "parameters": "species or system Wistar rats", "details": "rats, 3–100 mg/kg p.o. once daily 7 days"}, "[5]": {"assay": "Dose linearity of imepitoin after oral dosing", "format": "in vivo, beagle dogs", "details": "both, beagle, dog, plasma, po"}}, "note": "Where “and” joins values, the source holds several entries; their conditions need not be identical. Equal values may be shown once. Read-outs that look alike come from different tables or passages of the source."}
{"compound": "O=C1N=C(N2CCOCC2)CN1c1ccc(Cl)cc1", "note": "[Imepitoin, 1-(4-chlorophenyl)-4-morpholino-imidazolin-2-one]", "values": [{"measurement": "IC50", "setting": "CYP2C19", "result": "> 100", "unit": "µM"}, {"measurement": "Inhibition of the specific cytochrome P450 isoform IC50, 2C19", "setting": "CYP2C19; recombinant human CYP2C19", "result": "did not influence"}, {"measurement": "induction of CYP2E1", "setting": "CYP2E1", "result": "did not induce"}, {"measurement": "tolerability, clinical adverse events", "setting": "[1]; 20 mg/kg p.o. (3 male, 3 female dogs) and 1 mg/kg i.v. (3 female dogs)", "result": "well tolerated"}, {"measurement": "total radioactivity excreted urinary", "setting": "[1]; after oral dosing, range males/females", "result": "27–38%"}, {"measurement": "Fraction excreted, Total", "setting": "[1]; females, 1 mg/kg i.v., 0–8 h", "result": "30.62 (n < 3) % of intravenous dose"}, {"measurement": "Fraction excreted, Urine + Cage wash", "setting": "[1]; females, 1 mg/kg i.v., 0–8 h", "result": "30.62 (n < 3) % of intravenous dose"}, {"measurement": "Fraction excreted, Feces", "setting": "[1]; females, 1 mg/kg i.v., 0–24 h", "result": "54.74 (n < 3) % of intravenous dose"}, {"measurement": "Fraction excreted, Total", "setting": "[1]; females, 1 mg/kg i.v., 0–24 h", "result": "74.07 (33.4) % of intravenous dose"}, {"measurement": "Fraction excreted, Urine + Cage wash", "setting": "[1]; females, 1 mg/kg i.v., 0–24 h", "result": "37.58 (19.1) % of intravenous dose"}, {"measurement": "Fraction excreted, Feces", "setting": "[1]; females, 1 mg/kg i.v., 0–48 h", "result": "68.33 (n < 3) % of intravenous dose"}, {"measurement": "Fraction excreted, Total", "setting": "[1]; females, 1 mg/kg i.v., 0–48 h", "result": "85.43 (37.2) % of intravenous dose"}, {"measurement": "Fraction excreted, Urine + Cage wash", "setting": "[1]; females, 1 mg/kg i.v., 0–48 h", "result": "39.87 (19.9) % of intravenous dose"}, {"measurement": "Fraction excreted, Total", "setting": "[1]; females, 1 mg/kg i.v., 0–264 h", "result": "104.43 (4.4) % of intravenous dose"}, {"measurement": "Fraction excreted, Feces", "setting": "[1]; females, 20 mg/kg p.o., 0–8 h", "result": "0.09 (n < 3) % of oral dose"}, {"measurement": "Fraction excreted, Total", "setting": "[1]; females, 20 mg/kg p.o., 0–8 h", "result": "8.04 (n < 3) % of oral dose"}, {"measurement": "Fraction excreted, Urine + Cage wash", "setting": "[1]; females, 20 mg/kg p.o., 0–8 h", "result": "7.95 (n < 3) % of oral dose"}, {"measurement": "Fraction excreted, Feces", "setting": "[1]; females, 20 mg/kg p.o., 0–24 h", "result": "40.62 (n < 3) % of oral dose"}, {"measurement": "Fraction excreted, Total", "setting": "[1]; females, 20 mg/kg p.o., 0–24 h", "result": "63.58 (n < 3) % of oral dose"}, {"measurement": "Fraction excreted, Urine + Cage wash", "setting": "[1]; females, 20 mg/kg p.o., 0–24 h", "result": "22.96 (n < 3) % of oral dose"}, {"measurement": "Fraction excreted, Feces", "setting": "[1]; females, 20 mg/kg p.o., 0–48 h", "result": "45.64 (22.0) % of oral dose"}, {"measurement": "Fraction excreted, Total", "setting": "[1]; females, 20 mg/kg p.o., 0–48 h", "result": "76.52 (20.8) % of oral dose"}, {"measurement": "Fraction excreted, Urine + Cage wash", "setting": "[1]; females, 20 mg/kg p.o., 0–48 h", "result": "30.88 (23.3) % of oral dose"}, {"measurement": "Fraction excreted, Total", "setting": "[1]; females, 20 mg/kg p.o., 0–264 h", "result": "93.84 (8.4) % of oral dose"}, {"measurement": "Fraction excreted, Total", "setting": "[1]; males, 20 mg/kg p.o., 0–8 h", "result": "0.58 (n < 3) % of oral dose"}, {"measurement": "Fraction excreted, Urine + Cage wash", "setting": "[1]; males, 20 mg/kg p.o., 0–8 h", "result": "0.58 (n < 3) % of oral dose"}, {"measurement": "Fraction excreted, Feces", "setting": "[1]; males, 20 mg/kg p.o., 0–24 h", "result": "34.41 (92.2) % of oral dose"}, {"measurement": "Fraction excreted, Total", "setting": "[1]; males, 20 mg/kg p.o., 0–24 h", "result": "51.11 (66.2) % of oral dose"}, {"measurement": "Fraction excreted, Urine + Cage wash", "setting": "[1]; males, 20 mg/kg p.o., 0–24 h", "result": "16.70 (20.9) % of oral dose"}, {"measurement": "Fraction excreted, Feces", "setting": "[1]; males, 20 mg/kg p.o., 0–48 h", "result": "75.65 (12.3) % of oral dose"}, {"measurement": "Fraction excreted, Total", "setting": "[1]; males, 20 mg/kg p.o., 0–48 h", "result": "97.51 (6.4) % of oral dose"}, {"measurement": "Fraction excreted, Urine + Cage wash", "setting": "[1]; males, 20 mg/kg p.o., 0–48 h", "result": "21.86 (20.5) % of oral dose"}, {"measurement": "Fraction excreted, Total", "setting": "[1]; males, 20 mg/kg p.o., 0–264 h", "result": "104.74 (2.8) % of oral dose"}, {"measurement": "total radioactivity excreted within 48 h", "setting": "[1]; urine + feces, range over dosing groups", "result": "76–97% and 76.5–97.5%"}, {"measurement": "influence on activity of CYP3A4", "setting": "CYP3A4", "result": "did not influence"}, {"measurement": "fraction unbound at 15 min, 10 μg/mL", "setting": "plasma protein [2]", "result": 0.44}, {"measurement": "induction of NAT2", "setting": "NAT2", "result": "did not induce"}, {"measurement": "elevation of threshold for pentylenetetrazole-induced convulsions", "setting": "[3]; 5 mg/kg orally twice daily, 5 mg/kg", "result": "significant increase"}, {"measurement": "elevation of threshold for pentylenetetrazole-induced convulsions", "setting": "[3]; 40 mg/kg twice daily, 40 mg/kg", "result": "much stronger elevation of threshold"}, {"measurement": "elevation of threshold for pentylenetetrazole-induced convulsions", "setting": "[3]; 40 mg/kg twice daily, listed as imepitoin, 40 mg/kg", "result": "greatly enhanced the drug-induced effect"}, {"measurement": "development of tolerance toward anticonvulsant activity", "setting": "[3]; repeated administration for 28 days", "result": "no development of tolerance"}, {"measurement": "in vivo plasma protein binding", "setting": "plasma protein [4]; 2 h after 20 mg/kg p.o. or 1 mg/kg i.v.", "result": "59–69%"}, {"measurement": "in vivo plasma protein binding", "setting": "plasma protein [4]; 8 h after 20 mg/kg p.o. or 1 mg/kg i.v.", "result": "62–72%"}, {"measurement": "In vivo protein binding", "setting": "plasma protein [4]; female dogs, 1 mg/kg i.v., 2 h after dosing, mean ± SEM", "result": "59 ± 0.69", "unit": "%"}, {"measurement": "In vivo protein binding", "setting": "plasma protein [4]; female dogs, 1 mg/kg i.v., 4 h after dosing, mean ± SEM", "result": "66 ± 2.66", "unit": "%"}, {"measurement": "In vivo protein binding", "setting": "plasma protein [4]; female dogs, 1 mg/kg i.v., 8 h after dosing, mean ± SEM", "result": "72 ± 1.33", "unit": "%"}, {"measurement": "In vivo protein binding", "setting": "plasma protein [4]; female dogs, 20 mg/kg p.o., 2 h after dosing", "result": "69 (n < 3) %"}, {"measurement": "In vivo protein binding", "setting": "plasma protein [4]; female dogs, 20 mg/kg p.o., 4 h after dosing, mean ± SEM", "result": "66 ± 0.69", "unit": "%"}, {"measurement": "In vivo protein binding", "setting": "plasma protein [4]; female dogs, 20 mg/kg p.o., 8 h after dosing, mean ± SEM", "result": "62 ± 7.68", "unit": "%"}, {"measurement": "In vivo protein binding", "setting": "plasma protein [4]; male dogs, 20 mg/kg p.o., 2 h after dosing", "result": "60 (n < 3) %"}, {"measurement": "In vivo protein binding", "setting": "plasma protein [4]; male dogs, 20 mg/kg p.o., 4 h after dosing, mean ± SEM", "result": "63 ± 1.62", "unit": "%"}, {"measurement": "In vivo protein binding", "setting": "plasma protein [4]; male dogs, 20 mg/kg p.o., 8 h after dosing, mean ± SEM", "result": "67 ± 2.71", "unit": "%"}, {"measurement": "induction of CYP2A", "setting": "CYP2A", "result": "did not induce"}, {"measurement": "Cmax", "setting": "[5]; 10 mg/kg", "result": "1.81 ± 0.92", "unit": "µg/mL"}, {"measurement": "Tmax", "setting": "[5]; 10 mg/kg", "result": "8.67 ± 3.1", "unit": "h"}, {"measurement": "Cmax", "setting": "[5]; 20 mg/kg", "result": "3.5 ± 1.07", "unit": "µg/mL"}, {"measurement": "Tmax", "setting": "[5]; 20 mg/kg", "result": "10.7 ± 4", "unit": "h"}, {"measurement": "Cmax", "setting": "[5]; 50 mg/kg", "result": "6.41 ± 1.75", "unit": "µg/mL"}]}
